Starred links: 1 amine or outer side, 2 acyl side, 3 side chain; linkers in the order of their positions; H or OH if unused. Non-standard residues stand in square brackets, D forms with d. Residues, ends and D or L forms follow the SMILES beside them. X1 = O=C(C(O)[C@H](Cc1ccccc1)N[*:1])[*:2]; X2 = CC(C)C[C@H](N[*:1])C(O)C(=O)[*:2]; Thz(5,5-Me2) = CC1(C)SCN[C@@H]1C(=O)O
Tests used:
[1] = target: T1, Gag-Pro polyprotein (Human T-cell leukemia virus 1 (strain Japan ATK-1 subtype A) (HTLV-1)) (UniProt P10274); assay: Percent inhibition of recombinant human T-cell leukemia virus type I (HTLV-1) protease was determined at 100 uM concentration; conditions: human T-cell leukemia virus type 1
T1 sequence (whole entry): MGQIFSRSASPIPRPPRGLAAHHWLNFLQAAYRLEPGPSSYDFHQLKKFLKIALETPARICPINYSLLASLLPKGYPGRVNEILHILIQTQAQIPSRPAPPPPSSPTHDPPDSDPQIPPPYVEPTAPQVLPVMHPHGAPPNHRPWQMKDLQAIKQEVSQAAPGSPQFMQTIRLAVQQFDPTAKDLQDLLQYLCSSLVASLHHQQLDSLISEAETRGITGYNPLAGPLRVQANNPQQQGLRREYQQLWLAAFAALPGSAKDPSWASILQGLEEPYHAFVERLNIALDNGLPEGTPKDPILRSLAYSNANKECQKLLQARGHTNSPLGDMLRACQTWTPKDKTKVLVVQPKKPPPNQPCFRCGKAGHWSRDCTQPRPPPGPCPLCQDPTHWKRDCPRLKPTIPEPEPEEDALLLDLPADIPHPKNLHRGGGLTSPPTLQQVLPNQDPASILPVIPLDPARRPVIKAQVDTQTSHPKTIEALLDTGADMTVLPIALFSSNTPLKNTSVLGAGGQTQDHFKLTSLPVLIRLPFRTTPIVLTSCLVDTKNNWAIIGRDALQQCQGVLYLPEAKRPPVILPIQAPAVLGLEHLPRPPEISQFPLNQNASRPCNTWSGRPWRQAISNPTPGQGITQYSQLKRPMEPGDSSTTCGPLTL

[2] = target: T1, Gag-Pro polyprotein (Human T-cell leukemia virus 1 (strain Japan ATK-1 subtype A) (HTLV-1)); assay: Percent inhibition of synthesized human T-cell leukemia virus type I (HTLV-1) protease was determined at 100 uM concentration; conditions: human T-cell leukemia virus type 1
[3] = target: Human immunodeficiency virus type 1 protease (Human immunodeficiency virus 1) (UniProt Q72874); assay: Percent inhibition of human immunodeficiency virus type I (HIV-1) protease was determined at 50 uM concentration
[4] = target: T1, Gag-Pro polyprotein (Human T-cell leukemia virus 1 (strain Japan ATK-1 subtype A) (HTLV-1)); assay: Percent inhibition of synthesized human T-cell leukemia virus type I (HTLV-1) protease was determined at 50 uM concentration; conditions: Human T-cell lymphotrophic virus type 1 (strain ATK)
[5] = target: T1, Gag-Pro polyprotein (Human T-cell leukemia virus 1 (strain Japan ATK-1 subtype A) (HTLV-1)); assay: Percent inhibition of recombinant human T-cell leukemia virus type I (HTLV-1) protease was determined at 50 uM concentration; conditions: Human T-cell lymphotrophic virus type 1 (strain ATK)
Gag-Pro polyprotein [6] = target: T2, Gag-Pro polyprotein (Human T-cell leukemia virus 1 (strain Japan ATK-1 subtype A) (HTLV-1), UniProt P10274); assay: Inhibitory binding affinity towards recombinant human T-cell leukemia virus type I (HTLV-1) protease; design: species or system human T-cell leukemia virus type 1
T2 sequence (P10274 whole entry): T1 sequence (whole entry)

Gag-Pro polyprotein [7] = target: T2, Gag-Pro polyprotein; assay: Inhibitory binding affinity towards synthesized human T-cell leukemia virus type I (HTLV-1) protease; design: species or system human T-cell leukemia virus type 1

inhibition [1] | inhibition [2] | Compound | inhibition [3] | inhibition [4] | inhibition [5] | Ki (Gag-Pro polyprotein [6]) | Ki (Gag-Pro polyprotein [7])
20% | 20% | CC(C)c1nc(CN(C)C(=O)N[C@H](C(=O)N[C@@H](Cc2ccccc2)C[C@H](O)[C@H](Cc2ccccc2)NC(=O)OCc2cncs2)C(C)C)cs1 | 100% |  |  |  | 
38% | 57% | Cc1c(O)cccc1C(=O)NC(Cc1ccccc1)C(O)C(=O)N1CSC(C)(C)C1C(=O)NC(C)(C)C (stereo not drawn) | 88% |  |  |  | 
43% | 32% | Cc1cccc(C)c1OCC(=O)NC(Cc1ccccc1)C(O)C(=O)N1CSC(C)(C)C1C(=O)NC(C)(C)C (stereo not drawn) | 96% |  |  |  | 
19% | 11% | Cc1ccccc1CNC(=O)C1N(C(=O)C(O)C(Cc2ccccc2)NC(=O)COc2c(C)cccc2C)CSC1(C)C (stereo not drawn) | 98% |  |  |  | 
31% | 79% | Cc1ccccc1CNC(=O)C1N(C(=O)C(O)C(Cc2ccccc2)NC(=O)c2cccc(O)c2C)CSC1(C)C (stereo not drawn) | 96% |  |  |  | 
 |  | CSCC[C@H](NC(=O)[C@@H](NC(=O)[C@H]1N(C(=O)C(O)[C@H](Cc2ccccc2)NC(=O)[C@@H](NC(=O)[C@H](CCC(N)=O)NC(=O)[C@@H]2CCCN2)C(C)C)CSC1(C)C)C(C)C)C(=O)N[C@@H](Cc1cnc[nH]1)C(=O)O (stereo partly drawn) (H-PQV[X1][Thz(5,5-Me2)]VMH-OH) |  |  |  | 3.9 µM | 2 µM
 |  | CC(C)CC(=O)N[C@H](C(=O)N[C@H](C(=O)N[C@@H](CC(C)C)[C@@H](O)CC(=O)N[C@@H](C)C(=O)N[C@@H](CC(C)C)[C@@H](O)CC(=O)O)C(C)C)C(C)C [PEPSTATIN] | 23% | 15% | 17% | 14.6 µM | 36.5 µM

Compound | inhibition [1] | inhibition [2] | inhibition [3] | inhibition [4] | inhibition [5] | Ki (Gag-Pro polyprotein [6]) | Ki (Gag-Pro polyprotein [7])
CSCC[C@H](NC(=O)[C@@H](NC(=O)[C@@H]1CCCN1C(=O)C(O)[C@H](Cc1ccccc1)NC(=O)[C@@H](NC(=O)[C@H](CCC(N)=O)NC(=O)[C@@H]1CCCN1)C(C)C)C(C)C)C(=O)N[C@@H](Cc1c[nH]cn1)C(=O)O (stereo partly drawn) (H-PQV[X1]PVMH-OH) | 94% |  | 6% | 59% | 54% |  | 
CSCC[C@H](NC(=O)[C@@H](NC(=O)[C@H]1N(C(=O)C(O)[C@H](Cc2ccccc2)NC(=O)[C@@H](NC(=O)[C@H](CCC(N)=O)NC(=O)[C@@H]2CCCN2)C(C)C)CSC1(C)C)C(C)C)C(=O)N[C@@H](Cc1c[nH]cn1)C(=O)O (stereo partly drawn) (H-PQV[X1][Thz(5,5-Me2)]VMH-OH) | 100% |  | 58% | 80% | 66% |  | 
CSCC[C@H](NC(=O)[C@@H](NC(=O)[C@@H]1CCCN1C(=O)C(O)[C@H](CC(C)C)NC(=O)[C@@H](NC(=O)[C@H](CCC(N)=O)NC(=O)[C@@H]1CCCN1)C(C)C)C(C)C)C(=O)N[C@@H](Cc1c[nH]cn1)C(=O)O (stereo partly drawn) (H-PQV[X2]PVMH-OH) | 93% |  | 3% | 58% | 43% |  | 
CSCC[C@H](NC(=O)[C@@H](NC(=O)[C@H]1N(C(=O)C(O)[C@H](CC(C)C)NC(=O)[C@@H](NC(=O)[C@H](CCC(N)=O)NC(=O)[C@@H]2CCCN2)C(C)C)CSC1(C)C)C(C)C)C(=O)N[C@@H](Cc1c[nH]cn1)C(=O)O (stereo partly drawn) (H-PQV[X2][Thz(5,5-Me2)]VMH-OH) | 100% |  | 37% | 76% | 63% |  | 

From ChEMBL document CHEMBL1137065, “Identification of peptidomimetic HTLV-I protease inhibitors containing hydroxymethylcarbonyl (HMC) isostere as the transition-state mimic” (Bioorg Med Chem Lett, 2004)
